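Cells were grown in 96-well plates and exposed to each compound for 48 hours at five concentrations; endpoints were interpolated linearly between bracketing concentrations, or set to the highest concentration if not reached. Definition used: TGI = concentration required for complete inhibition of growth.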
What was measured:
Assay in all cases: DTP human tumour cell line panel, 48 h
HT29 colon = system: HT29 colon
SF-268 CNS = system: SF-268 CNS
SN12C renal = system: SN12C renal
HCC-2998 colon = system: HCC-2998 colon
UO-31 renal = system: UO-31 renal
OVCAR-4 ovarian = system: OVCAR-4 ovarian
SNB-75 CNS = system: SNB-75 CNS
OVCAR-8 ovarian = system: OVCAR-8 ovarian
HCT-116 colon = system: HCT-116 colon
ACHN renal = system: ACHN renal
UACC-257 melanoma = system: UACC-257 melanoma
NCI/ADR-RES ovarian = system: NCI/ADR-RES ovarian
IGROV1 ovarian = system: IGROV1 ovarian
MCF7 breast = system: MCF7 breast
KM12 colon = system: KM12 colon
DU-145 prostate = system: DU-145 prostate
HS 578T breast = system: HS 578T breast
SK-OV-3 ovarian = system: SK-OV-3 ovarian
COLO 205 colon = system: COLO 205 colon
A549 NSCLC = system: A549 NSCLC
CAKI-1 renal = system: CAKI-1 renal
NCI-H522 lung = system: NCI-H522 lung
RXF 393 renal = system: RXF 393 renal
K-562 leukemia = system: K-562 leukemia
LOX IMVI melanoma = system: LOX IMVI melanoma
SK-MEL-5 melanoma = system: SK-MEL-5 melanoma
EKVX NSCLC = system: EKVX NSCLC
SF-295 CNS = system: SF-295 CNS
PC-3 prostate = system: PC-3 prostate
MALME-3M melanoma = system: MALME-3M melanoma
NCI-H23 lung = system: NCI-H23 lung
NCI-H226 lung = system: NCI-H226 lung
UACC-62 melanoma = system: UACC-62 melanoma
U251 CNS = system: U251 CNS
SF-539 CNS = system: SF-539 CNS
A498 renal = system: A498 renal
T-47D breast = system: T-47D breast
HOP-62 NSCLC = system: HOP-62 NSCLC
TK-10 renal = system: TK-10 renal
CCRF-CEM leukemia = system: CCRF-CEM leukemia
BT-549 breast = system: BT-549 breast
MDA-MB-435 = system: MDA-MB-435
HOP-92 NSCLC = system: HOP-92 NSCLC
RPMI-8226 leukemia = system: RPMI-8226 leukemia
M14 melanoma = system: M14 melanoma
MDA-MB-231 breast = system: MDA-MB-231 breast
OVCAR-3 ovarian = system: OVCAR-3 ovarian
SK-MEL-2 melanoma = system: SK-MEL-2 melanoma
OVCAR-5 ovarian = system: OVCAR-5 ovarian
HCT-15 colon = system: HCT-15 colon
NCI-H460 lung = system: NCI-H460 lung
SNB-19 CNS = system: SNB-19 CNS
MOLT-4 leukemia = system: MOLT-4 leukemia
786-0 renal = system: 786-0 renal
MDA-N = system: MDA-N
HL-60(TB) leukemia = system: HL-60(TB) leukemia
SK-MEL-28 melanoma = system: SK-MEL-28 melanoma
SW-620 colon = system: SW-620 colon
SR leukemia = system: SR leukemia

SMILES: CCN(CC)CCO/N=C1/C=C2CCC3C(CC[C@@]4(C)C3CC[C@]4(C)O)[C@@]2(C)CC1 (stereo partly drawn)
- TGI (HT29 colon): 5.35 µM
- TGI (SF-268 CNS): 31.2 µM
- TGI (SN12C renal): 16.3 µM
- TGI (HCC-2998 colon): 19 µM
- TGI (UO-31 renal): 18.9 µM
- TGI (OVCAR-4 ovarian): > 100 µM
- TGI (SNB-75 CNS): 9.15 µM
- TGI (OVCAR-8 ovarian): 20.4 µM
- TGI (HCT-116 colon): 16.7 µM
- TGI (ACHN renal): 39.2 µM
- TGI (UACC-257 melanoma): 18.2 µM
- TGI (NCI/ADR-RES ovarian): 7.48 µM
- TGI (IGROV1 ovarian): 21 µM
- TGI (MCF7 breast): 80.1 µM
- TGI (KM12 colon): 18.9 µM
- TGI (DU-145 prostate): 34.5 µM
- TGI (HS 578T breast): 33.7 µM
- TGI (SK-OV-3 ovarian): 46.4 µM
- TGI (COLO 205 colon): 14.6 µM
- TGI (A549 NSCLC): 45.9 µM
- TGI (CAKI-1 renal): 20.1 µM
- TGI (NCI-H522 lung): 6.07 µM
- TGI (RXF 393 renal): 72.2 µM
- TGI (K-562 leukemia): 18.9 µM
- TGI (LOX IMVI melanoma): 14.8 µM
- TGI (SK-MEL-5 melanoma): 26 µM
- TGI (EKVX NSCLC): 42.9 µM
- TGI (SF-295 CNS): 8.29 µM
- TGI (PC-3 prostate): 88.1 µM
- TGI (MALME-3M melanoma): 15.6 µM
- TGI (NCI-H23 lung): 29 µM
- TGI (NCI-H226 lung): 10.2 µM
- TGI (UACC-62 melanoma): 8.57 µM
- TGI (U251 CNS): 11.2 µM
- TGI (SF-539 CNS): 14.9 µM
- TGI (A498 renal): 0.878 µM
- TGI (T-47D breast): 68 µM
- TGI (HOP-62 NSCLC): 21 µM
- TGI (TK-10 renal): 45.1 µM
- TGI (CCRF-CEM leukemia): 3.97 µM
- TGI (BT-549 breast): 39.1 µM
- TGI (MDA-MB-435): 4.77 µM
- TGI (HOP-92 NSCLC): 21 µM
- TGI (RPMI-8226 leukemia): 15.2 µM
- TGI (M14 melanoma): 23.8 µM
- TGI (MDA-MB-231 breast): 36 µM
- TGI (OVCAR-3 ovarian): 13.6 µM
- TGI (SK-MEL-2 melanoma): 36.6 µM
- TGI (OVCAR-5 ovarian): 80 µM
- TGI (HCT-15 colon): 13.7 µM
- TGI (NCI-H460 lung): 15.3 µM
- TGI (SNB-19 CNS): 45.4 µM
- TGI (MOLT-4 leukemia): 10.2 µM
- TGI (786-0 renal): 12.7 µM
- TGI (MDA-N): 5.72 µM

SMILES: Cc1ncc([N+](=O)[O-])n1CCNC(=O)Cn1c([N+](=O)[O-])cnc1C
- TGI (HT29 colon): > 100 µM
- TGI (HL-60(TB) leukemia): > 100 µM
- TGI (SF-268 CNS): > 100 µM
- TGI (SN12C renal): > 100 µM
- TGI (HCC-2998 colon): > 100 µM
- TGI (UO-31 renal): > 100 µM
- TGI (SNB-75 CNS): > 100 µM
- TGI (OVCAR-8 ovarian): > 100 µM
- TGI (HCT-116 colon): > 100 µM
- TGI (ACHN renal): > 100 µM
- TGI (UACC-257 melanoma): > 100 µM
- TGI (NCI/ADR-RES ovarian): > 100 µM
- TGI (IGROV1 ovarian): > 100 µM
- TGI (MCF7 breast): > 100 µM
- TGI (KM12 colon): > 100 µM
- TGI (DU-145 prostate): > 100 µM
- TGI (SK-MEL-28 melanoma): > 100 µM
- TGI (HS 578T breast): > 100 µM
- TGI (SK-OV-3 ovarian): > 100 µM
- TGI (COLO 205 colon): > 100 µM
- TGI (A549 NSCLC): > 100 µM
- TGI (CAKI-1 renal): > 100 µM
- TGI (NCI-H522 lung): > 100 µM
- TGI (K-562 leukemia): > 100 µM
- TGI (SK-MEL-5 melanoma): > 100 µM
- TGI (SF-295 CNS): > 100 µM
- TGI (PC-3 prostate): > 100 µM
- TGI (MALME-3M melanoma): > 100 µM
- TGI (SW-620 colon): > 100 µM
- TGI (NCI-H23 lung): > 100 µM
- TGI (NCI-H226 lung): > 100 µM
- TGI (UACC-62 melanoma): > 100 µM
- TGI (U251 CNS): > 100 µM
- TGI (SF-539 CNS): > 100 µM
- TGI (A498 renal): > 100 µM
- TGI (T-47D breast): > 100 µM
- TGI (HOP-62 NSCLC): > 100 µM
- TGI (TK-10 renal): > 100 µM
- TGI (CCRF-CEM leukemia): > 100 µM
- TGI (BT-549 breast): > 100 µM
- TGI (MDA-MB-435): > 100 µM
- TGI (M14 melanoma): > 100 µM
- TGI (MDA-MB-231 breast): > 100 µM
- TGI (SR leukemia): > 100 µM
- TGI (OVCAR-3 ovarian): > 100 µM
- TGI (SK-MEL-2 melanoma): > 100 µM
- TGI (OVCAR-5 ovarian): > 100 µM
- TGI (HCT-15 colon): > 100 µM
- TGI (NCI-H460 lung): > 100 µM
- TGI (SNB-19 CNS): > 100 µM
- TGI (MOLT-4 leukemia): > 100 µM
- TGI (786-0 renal): > 100 µM
- TGI (MDA-N): > 100 µM

From PubChem BioAssay (NCI)
